Laboratory results taken from the supplement of paper PMC10307832.

Assays:
Experiment in all cases: relative viability (nuclei count vs DMSO), 5 days (fraction); higher = more cells survive
Bemcentinib + Lapatinib = compound: Nc1nc(Nc2ccc3c(c2)CC[C@@H](N2CCCC2)CC3)nn1-c1cc2c(nn1)-c1ccccc1CCC2 [Bemcentinib] + CS(=O)(=O)CCNCc1ccc(-c2ccc3ncnc(Nc4ccc(OCc5cccc(F)c5)c(Cl)c4)c3c2)o1 [Lapatinib] (partner 2 µM)
Summary of the method: (§1)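 Nuclei were stained with Hoechst during a one-step fixation (final 0.05% Triton X-100, 1% formaldehyde, 1 ug/ml Hoechst) carried out 5 days after dosing, then counted on 4× images. The cells, lung cancer lines in 1536-well plates, had been dosed by pin tool the day after seeding with one drug alone or a fixed anchor-drug dose plus five library-drug doses (not always all listed) in √10 steps. Relative viability is the nuclei count in treated wells divided by that in vehicle wells, and each value is the median of duplicate plates.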

[1] = compound: CC1=CC=C(C=C1)C(=O)CN2C3=C(CCCC3)SC2=N [Pifithrin_alpha] + Nc1ncn([C@H]2C[C@H](O)[C@@H](CO)O2)c(=O)n1 [Decitabine] (partner 2 µM)
Summary of the method: as §1

Axitinib + Alpelisib = compound: CNC(=O)c1ccccc1Sc1ccc2c(/C=C/c3ccccn3)n[nH]c2c1 [Axitinib] + Cc1nc(NC(=O)N2CCC[C@H]2C(N)=O)sc1-c1ccnc(C(C)(C)C(F)(F)F)c1 [Alpelisib] (partner 2 µM)
Summary of the method: as §1

[2] = compound: CC1=CC=C(C=C1)C(=O)CN2C3=C(CCCC3)SC2=N [Pifithrin_alpha] + N=C(N)NC(=N)NCCc1ccccc1 [Phenformin] (partner 250 µM)
Summary of the method: as §1

| Cell Line | relative viability (Bemcentinib + Lapatinib; first compound 0.04 µM) | relative viability (Bemcentinib + Lapatinib; first compound 0.1265 µM) | relative viability (Bemcentinib + Lapatinib; first compound 0.4 µM) | relative viability (Bemcentinib + Lapatinib; first compound 1.265 µM) | relative viability (Bemcentinib + Lapatinib; first compound 4 µM) | relative viability ([1]; first compound 1 µM) | relative viability ([1]; first compound 3.162 µM) | relative viability ([1]; first compound 10 µM) | relative viability ([1]; first compound 31.62 µM) | relative viability ([1]; first compound 100 µM) | relative viability (Axitinib + Alpelisib; first compound 0.005 µM) | relative viability (Axitinib + Alpelisib; first compound 0.01581 µM) | relative viability (Axitinib + Alpelisib; first compound 0.05 µM) | relative viability (Axitinib + Alpelisib; first compound 0.1581 µM) | relative viability (Axitinib + Alpelisib; first compound 0.5 µM) | relative viability ([2]; first compound 1 µM) | relative viability ([2]; first compound 3.162 µM) | relative viability ([2]; first compound 10 µM) | relative viability ([2]; first compound 31.62 µM) | relative viability ([2]; first compound 100 µM) |
| --- | --- | --- | --- | --- | --- | --- | --- | --- | --- | --- | --- | --- | --- | --- | --- | --- | --- | --- | --- | --- |
| HCC-15 | 0.883 | 0.954 | 0.884 | 0.895 | 0.903 | 0.657 | 0.738 | 0.573 | 0.531 | 0.456 | 0.933 | 0.899 | 0.838 | 0.847 | 0.866 | 0.487 | 0.449 | 0.435 | 0.249 | 0.279 |
| HCC-44 | 1.06 | 1.07 | 1.14 | 1.1 | 1.06 | 0.859 | 0.919 | 0.812 | 0.779 | 0.857 | 0.842 | 0.881 | 0.873 | 0.834 | 0.89 | 0.17 | 0.164 | 0.171 | 0.133 | 0.178 |
| PC-14 | 0.336 | 0.372 | 0.339 | 0.3 | 0.284 | 0.236 | 0.184 | 0.219 | 0.155 | 0.123 | 1.02 | 0.931 | 0.94 | 0.893 | 1.05 | 0.536 | 0.567 | 0.525 | 0.406 | 0.413 |
| NCI-H2085 | 0.625 | 0.805 | 0.756 | 0.74 | 0.721 | 0.523 | 0.419 | 0.473 | 0.473 | 0.503 | 1.05 | 0.85 | 0.979 | 0.866 | 0.947 |  | 0.597 | 0.686 | 0.65 | 0.619 |
| HCC-827 | 0.179 | 0.206 | 0.216 | 0.226 | 0.194 | 0.136 | 0.357 | 0.31 | 0.334 | 0.345 | 0.955 | 0.923 | 0.991 | 0.978 | 1.08 | 0.438 | 0.432 | 0.414 | 0.409 | 0.395 |
| H3255 | 0.222 | 0.352 | 0.229 | 0.237 | 0.191 | 0.581 | 0.66 | 0.646 | 0.389 | 0.572 | 0.648 | 0.611 | 0.632 | 0.724 | 0.702 | 0.364 | 0.97 | 0.384 | 0.389 | 0.342 |
| LOU-NH91 | 0.714 | 0.79 | 0.789 | 0.742 | 0.756 | 0.758 | 0.79 | 0.808 | 0.705 | 0.742 | 0.772 | 0.512 | 0.715 | 0.702 | 0.778 | 0.514 | 0.647 | 0.689 | 0.665 | 0.627 |
| LK-2 | 0.869 | 0.908 | 1.07 | 0.838 | 0.891 | 0.202 | 0.266 | 0.309 | 0.224 | 0.316 | 1.02 | 0.853 | 0.838 | 0.902 | 0.828 | 0.352 | 0.571 | 0.563 |  | 0.466 |
| EPLC-272H |  | 0.958 | 1.01 | 0.962 | 1.02 |  | 0.268 | 0.39 | 0.375 | 0.358 | 1.11 | 0.868 | 0.949 | 0.884 | 0.915 | 0.266 | 0.305 | 0.364 | 0.246 | 0.222 |
| NCI-H23 | 0.966 | 1.28 | 1.32 | 1.19 | 1.1 | 0.317 | 0.316 | 0.317 | 0.283 | 0.337 | 0.83 | 0.862 | 0.554 | 0.861 | 0.796 | 0.853 | 0.734 | 0.764 |  | 0.753 |
| NCI-H647 | 1.2 | 1.25 | 1.1 | 0.978 | 1.22 | 0.442 | 0.403 | 0.376 | 0.339 | 0.406 | 1.27 | 1.24 | 1.28 | 1.11 | 1.6 | 0.58 | 0.674 | 0.548 | 0.299 | 0.4 |
| LXF-289 | 0.887 | 0.908 | 0.988 | 0.972 | 0.924 | 0.359 | 0.335 | 0.388 | 0.366 | 0.369 | 1.05 | 0.961 | 1.03 | 0.958 | 1.05 | 0.509 | 0.562 | 0.526 | 0.471 | 0.556 |
| NCI-H596 | 1.07 | 1.13 | 1.09 | 1.09 | 1.09 | 0.89 | 1.15 | 1.12 | 1.07 | 1.09 | 0.503 | 0.624 | 0.531 | 0.599 | 0.553 | 0.761 | 0.737 | 0.84 | 0.766 | 0.494 |
